Converted amounts (≈) assume the structure as drawn. Where two headings read alike, the source gives them in different places.
Tests used:
[1] = system: K. pneumoniae ATCC BAA 1705 KPC-2-positive; test: combination disc test CDT-KPC; type: cell-based; details: Klebsiella pneumoniae, BAA1705; agent 0.3 mg per disc; read-out: Diameter of inhibition zone, MEM-10 disc with agent
[2] = system: C. parapsilosis ATCC 22019; test: antifungal activity (disc-diffusion, MIC, MFC); type: cell-based, Candida parapsilosis; details: Lodderomyces parapsilosis, ATCC22019; fluconazole by Etest
Experimental: (§1) Direct antimicrobial activity against Gram-negative and Gram-positive bacterial strains, as well as against yeast, was examined as previously described by the disc-diffusion test, the MIC determination assay, the MBC (for bacteria), and the MFC (for yeasts) determination tests. All the above-mentioned tests were performed according to EUCAST [71, 72] and CLSI [73, 74, 75, 76, 77] recommendations. The following reference agents were used: nitrofurantoin (for Gram-negative rods), linezolid (for Gram-positive bacteria), and fluconazole (in the case of fungi). The new aromatic diboronic acids were dissolved in DMSO (Sigma, St. Louis, MO, USA). In the disc-diffusion test, the concentration of new agents was 0.4 mg per disc.

[3] = MTT-based viability assay; type: cell-based; details: human, 72 h, read-out: Viability of MRC-5 cells (% of viable cells ± SD)
Experimental: MRC-5 human fibroblasts (ECACC) were cultured in MEME, Minimum Essential Medium Eagle (Merck) supplemented with 10% fetal bovine serum (Merck), 2 mM l-glutamine, antibiotics (100 U/mL penicillin, 100 μg/mL streptomycin, Merck) and 1% non-essential amino acids (Merck). Cells were grown in 75 cm^2 cell culture flasks (Sarstedt) in a humidified atmosphere of CO2/air (5/95%) at 37 °C. MTT-based viability assay was conducted as described previously. Optical densities were measured at 570 nm using a BioTek microplate reader. All measurements were carried out in three replicates, and the results were expressed as a percent of viable cells versus control cells.

[4] = system: P. aeruginosa MUW 700 cAmpC-positive; test: combination disc test CDT-AmpC; type: cell-based; details: Pseudomonas aeruginosa; agent 0.3 mg per disc; read-out: Diameter of inhibition zone, CAZ-30 disc with agent
[5] = system: K. pneumoniae ATCC 700603 ESBL-positive; test: combination disc test CDT-ESBL; type: cell-based; details: Klebsiella pneumoniae, ATCC700603; agent 0.3 mg per disc; read-out: Diameter of inhibition zone, CAZ-30 disc with agent
S. aureus ATCC 6538P = test: direct antimicrobial activity (disc-diffusion, MIC, MBC); type: cell-based; details: Staphylococcus aureus, ATCC6538P; for zone of inhibition at 0.4 mg/disc: 0.4 mg per disc, 9 mm disc (linezolid 0.03 mg, 6 mm disc), - no zone, read-out: Diameter of inhibition zone
Experimental: as §1

E. faecium ATCC 6057 = test: as above; type: cell-based; details: Enterococcus faecium, ATCC6057
Experimental: as §1

E. faecalis ATCC 29212 = test: as above; type: cell-based; details: Enterococcus faecalis, ATCC29212
Experimental: as §1

[6] = system: S. epidermidis ATCC 12228; test: as above; type: cell-based; details: Staphylococcus epidermidis, ATCC12228
Experimental: as §1

[7] = system: S. aureus ATCC 43300 MRSA; test: as above; type: cell-based; details: Staphylococcus aureus; for zone of inhibition at 0.4 mg/disc: 0.4 mg per disc, 9 mm disc (linezolid 0.03 mg, 6 mm disc), - no zone, read-out: Diameter of inhibition zone
Experimental: as §1

C. krusei ATCC 6258 = test: antifungal activity (disc-diffusion, MIC, MFC); type: cell-based, Candida krusei; details: Pichia kudriavzevii, ATCC6258; fluconazole by Etest
Experimental: as §1

[8] = system: P. aeruginosa MUW 700 AmpC(+); test: MIC of tested agent alone, microdilution; type: cell-based; details: Pseudomonas aeruginosa; read-out: MIC of agent alone
Experimental: (§2) To examine the ability of tested agents to inhibit various carbapenemases and AmpC-enzymes, their synergy with antibiotics against β-lactamase-producing strains was assessed by checkerboard microdilution assay, with slight modification. Checkerboards were prepared in microtiter plates, with seven two-fold dilutions of β-lactams (1–64 mg/L) in the rows and three two-fold dilutions of tested agents and PBA (4–16 mg/L) in the columns. Tested agents’ concentrations were limited to the concentrations at which the newest commercially available BLIs (vaborbactam, relebactam, and avibactam) are used in susceptibility testing. Plates were inoculated and incubated as in the MIC microdilution assay. Parallel, MICs of tested agents and PBA alone were determined by the microdilution assay. Following the incubation, antibiotic MICs in the presence of each agent’s concentration were determined. Moreover, for the first well without growth found in each checkerboard row and column along the growth/non-growth interface, the fractional inhibitory concentration index (FICI) was calculated using the formula below:FICI = [(MIC of antibiotic in combination)/(MIC of antibiotic alone)] + [(MIC of the tested agent in combination)/(MIC of tested agent alone)].

[9] = system: K. pneumoniae 83 KPC-3(+), CTX-M-3(+); test: MIC of tested agent alone, microdilution; type: cell-based; details: Klebsiella pneumoniae; read-out: MIC of agent alone
Experimental: as §2

E. coli 76 KPC-2(+) = test: MIC of tested agent alone, microdilution; type: cell-based; details: Escherichia coli; read-out: MIC of agent alone
Experimental: as §2

[10] = system: K. pneumoniae 81 KPC-3(+); test: MIC of tested agent alone, microdilution; type: cell-based; details: Klebsiella pneumoniae; read-out: MIC of agent alone
Experimental: as §2

[11] = system: K. pneumoniae ATCC BAA-1705 KPC-2(+); test: MIC of tested agent alone, microdilution; type: cell-based; details: Klebsiella pneumoniae, ATCCBAA1705; read-out: MIC of agent alone
Experimental: as §2

E. coli 77 CMY-2(+) = test: MIC of tested agent alone, microdilution; type: cell-based; details: Escherichia coli; read-out: MIC of agent alone
Experimental: as §2

[12] = system: E. coli 77 CMY-2-positive; test: combination disc test CDT-AmpC; type: cell-based; details: Escherichia coli; agent 0.3 mg per disc; read-out: Diameter of inhibition zone, CAZ-30 disc with agent
[13] = system: C. guilliermondii IBA 155; test: antifungal activity (disc-diffusion, MIC, MFC); type: cell-based, Candida guilliermondii; details: Meyerozyma guilliermondii, IBA155; fluconazole by Etest
Experimental: as §1

C. albicans ATCC 90028 = test: antifungal activity (disc-diffusion, MIC, MFC); type: cell-based; details: Candida albicans, ATCC90028; fluconazole by Etest
Experimental: as §1

C. tropicalis ATCC 750 = test: antifungal activity (disc-diffusion, MIC, MFC); type: cell-based; details: Candida tropicalis, ATCC750; fluconazole by Etest
Experimental: as §1

C. tropicalis IBA 171 = test: antifungal activity (disc-diffusion, MIC, MFC); type: cell-based; details: Candida tropicalis, IBA171; fluconazole by Etest
Experimental: as §1

S. cerevisiae ATCC 9763 = test: antifungal activity (disc-diffusion, MIC, MFC); type: cell-based; details: Saccharomyces cerevisiae, ATCC9763; fluconazole by Etest
Experimental: as §1

B. subtilis ATCC 6633 = test: direct antimicrobial activity (disc-diffusion); type: cell-based; details: Bacillus subtilis, ATCC6633; 0.4 mg per disc, 9 mm disc (linezolid 0.03 mg, 6 mm disc); - no zone; read-out: Diameter of inhibition zone
Experimental: as §1

[14] = 0.4 mg per disc, 9 mm disc (linezolid 0.03 mg, 6 mm disc), - no zone, read-out: Diameter of inhibition zone

| SMILES | zone of inhibition at 300 µg/disc [1] | MIC [2] | viability at 72 h, 12.5 mg/L ([3]; MRC-5 human fibroblasts) | viability at 72 h, 25 mg/L ([3]; MRC-5 human fibroblasts) | viability at 72 h, 50 mg/L ([3]; MRC-5 human fibroblasts) | zone of inhibition at 300 µg/disc [4] | zone of inhibition at 300 µg/disc [5] | MIC (S. aureus ATCC 6538P) | MIC (E. faecium ATCC 6057) | MIC (E. faecalis ATCC 29212) | MIC [6] | MIC [7] | MIC (C. krusei ATCC 6258) | MIC [8] | MIC [13] | MIC (C. albicans ATCC 90028) | MIC (C. tropicalis ATCC 750) | MIC (C. tropicalis IBA 171) | MIC (S. cerevisiae ATCC 9763) | zone of inhibition at 0.4 mg/disc (B. subtilis ATCC 6633) | also measured |
| --- | --- | --- | --- | --- | --- | --- | --- | --- | --- | --- | --- | --- | --- | --- | --- | --- | --- | --- | --- | --- | --- |
| COc1c(B(O)O)cccc1B(O)O [2g] | 6 mm | > 400 µg/mL | 111 ± 9.7% | 117 ± 3.7% | 103 ± 5.1% | 19 mm | 13 mm | > 400 µg/mL | 400 µg/mL (≈ 2040 µM) | > 400 µg/mL | > 400 µg/mL | > 400 µg/mL | > 400 µg/mL | > 400 µg/mL | > 400 µg/mL | > 400 µg/mL | > 400 µg/mL | > 400 µg/mL | > 400 µg/mL |  | MIC [9]: > 400 µg/mL; MIC (E. coli 76 KPC-2(+)): > 400 µg/mL; MIC [10]: > 400 µg/mL; MIC [11]: > 400 µg/mL; MIC (E. coli 77 CMY-2(+)): > 400 µg/mL; zone of inhibition at 300 µg/disc [12]: 20 mm |
| C[Si](C)(C)c1cc(B(O)O)c([Si](C)(C)C)cc1B(O)O [1k] |  | > 100 µg/mL |  |  |  |  |  | 100 µg/mL (≈ 322 µM) | 100 µg/mL (≈ 322 µM) | > 100 µg/mL | 100 µg/mL (≈ 322 µM) | 100 µg/mL (≈ 322 µM) | > 100 µg/mL |  | > 100 µg/mL | > 100 µg/mL | > 100 µg/mL | > 100 µg/mL | > 100 µg/mL | 11 mm | viability at 72 h, 12.5 mg/L [3]: 84.3 ± 0.9%; viability at 72 h, 25 mg/L [3]: 74.2 ± 3.5%; viability at 72 h, 50 mg/L [3]: 28.9 ± 1% |
| OB(O)c1cc(C(F)(F)F)c(B(O)O)cc1C(F)(F)F [1h] |  | > 400 µg/mL | 101 ± 4.3% | 104 ± 5% | 98.8 ± 3.2% |  |  | 400 µg/mL (≈ 1330 µM) | 400 µg/mL (≈ 1330 µM) | 400 µg/mL (≈ 1330 µM) | 200 µg/mL (≈ 663 µM) | 400 µg/mL (≈ 1330 µM) | > 400 µg/mL |  | > 400 µg/mL | > 400 µg/mL | > 400 µg/mL | > 400 µg/mL | > 400 µg/mL | 12 mm | zone of inhibition at 0.4 mg/disc (S. aureus ATCC 6538P): 13 mm; zone of inhibition at 0.4 mg/disc [7]: 14 mm |
| OB(O)c1cc(B(O)O)cc(B(O)O)c1 [4a, benzene-1,3,5-triboronic acid] | 6 mm | > 400 µg/mL | 102 ± 6.9% | 84.4 ± 6.4% | 87.9 ± 8.5% | 16 mm | 14 mm | > 400 µg/mL | 400 µg/mL (≈ 1910 µM) | > 400 µg/mL | > 400 µg/mL | > 400 µg/mL | > 400 µg/mL | > 400 µg/mL | > 400 µg/mL | > 400 µg/mL | > 400 µg/mL | > 400 µg/mL | > 400 µg/mL |  | MIC [9]: > 400 µg/mL; MIC (E. coli 76 KPC-2(+)): > 400 µg/mL; MIC [10]: > 400 µg/mL; MIC [11]: > 400 µg/mL; MIC (E. coli 77 CMY-2(+)): > 400 µg/mL; zone of inhibition at 300 µg/disc [12]: 20 mm |
| CC(=O)NC[C@H]1CN(c2ccc(N3CCOCC3)c(F)c2)C(=O)O1 [LIN, linezolid, reference compound] |  |  |  |  |  |  |  | 1 µg/mL (≈ 2.96 µM) | 2 µg/mL (≈ 5.93 µM) | 2 µg/mL (≈ 5.93 µM) | 1 µg/mL (≈ 2.96 µM) | 2 µg/mL (≈ 5.93 µM) |  |  |  |  |  |  |  | 30 mm | MBC (S. aureus ATCC 6538P): > 128 µg/mL; zone of inhibition at 0.4 mg/disc (S. aureus ATCC 6538P): 25 mm; MBC (E. faecium ATCC 6057): > 128 µg/mL; zone of inhibition at 0.4 mg/disc (E. faecium ATCC 6057; [14]): 14 mm; MBC (E. faecalis ATCC 29212): > 128 µg/mL; zone of inhibition at 0.4 mg/disc (E. faecalis ATCC 29212; [14]): 15 mm; MBC [6]: > 128 µg/mL; zone of inhibition at 0.4 mg/disc [6, 14]: 26 mm; MBC [7]: > 128 µg/mL; zone of inhibition at 0.4 mg/disc [7]: 25 mm |
